# Tests used:
# [1] = Screening of excipient suitability: zileuton with excipient, stability at 50° C.; assay type: physicochemical; settings: changes of TRS % up to 4 weeks at 50° C.
# Experimental: Suitability of components generally used in cream formulation with respect to zieluton was screened, prior to preparing a zieluton cream formulation. […] That is, the stability of excipient at 50° C. was tested.
# [2] = Physical stability, phase separation checked with the naked eye; assay type: physicochemical; settings: solvent screened in cream composition
# From the text: This is a test to discover an optimized processing method for obtaining a cream formulation.
Suitability of excipient with respect to zileuton [1],Physical stability of cream made with this solvent [2],Compound
suitable,–,CCCCCCCCCCCCCCCCCCO [stearyl alcohol]
–,bad physical stability,"CN1CCCC1=O [NMP, N-methyl pyrrolidone]"
–,bad physical stability,OCc1ccccc1 [benzyl alcohol]
–,deteriorates physical stability,CCO [ethanol]

# From patent publication US9855243B2, “Topical anti-inflammatory pharmaceutical composition with zileuton cream formulation” (Qurient Co., Ltd., priority 2013, dated 2018)
